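Protocol summary: plate cells (96-well), add compound at 5 concentrations, incubate 48 h, interpolate endpoints linearly. Abbreviation: GI50, concentration required for 50% inhibition of growth.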 Calls of active or inactive are those of the source. Cut-off read from the data, not from the text of the source: active = GI50 up to about 1.1 µM and inactive = higher.
Experiments:
Test in all cases: growth of human tumour cells (NCI), 48 h
[1] = test system: SK-MEL-28
[2] = test system: HL-60
[3] = test system: SNB-19
[4] = test system: OVCAR-4
[5] = test system: LOX IMVI
[6] = test system: HT-29
[7] = test system: ACHN
[8] = test system: NCI/ADR-RES
[9] = test system: SR
[10] = test system: A549
[11] = test system: MDA-N
[12] = test system: MOLT-4
[13] = test system: HOP-92
[14] = test system: PC-3
[15] = test system: NCI-H23
[16] = test system: OVCAR-5
[17] = test system: K562
[18] = test system: OVCAR-8
[19] = test system: MDA-MB-231
[20] = test system: SK-OV-3

Compound | GI50 [1] | GI50 [2] | GI50 [3] | GI50 [4] | GI50 [5] | GI50 [6] | GI50 [7] | GI50 [8] | GI50 [9] | GI50 [10] | GI50 [11] | GI50 [12] | GI50 [13] | GI50 [14] | GI50 [15] | GI50 [16] | GI50 [17] | GI50 [18] | GI50 [19] | GI50 [20]
Cc1ccc(Nc2cn(COCc3ccccc3)c(=O)[nH]c2=O)cc1 | > 100 µM (inactive) | > 100 µM (inactive) | 75.2 µM (inactive) | > 100 µM (inactive) | > 100 µM (inactive) | > 100 µM (inactive) | 37 µM (inactive) | > 100 µM (inactive) | > 100 µM (inactive) | > 100 µM (inactive) | > 100 µM (inactive) | > 100 µM (inactive) | > 100 µM (inactive) | > 100 µM (inactive) | 25.5 µM (inactive) | > 100 µM (inactive) | > 100 µM (inactive) | – | – | –
CC1=CC2(O)OC3(CC2=C(C)C)C(C)CCC13 (stereo unspecified) | – | > 100 µM (inactive) | > 100 µM (inactive) | > 100 µM (inactive) | > 100 µM (inactive) | > 100 µM (inactive) | > 100 µM (inactive) | > 100 µM (inactive) | – | > 100 µM (inactive) | > 100 µM (inactive) | > 100 µM (inactive) | > 100 µM (inactive) | – | > 100 µM (inactive) | > 100 µM (inactive) | > 100 µM (inactive) | > 100 µM (inactive) | > 100 µM (inactive) | > 100 µM (inactive)
O=C1CC(Cl)c2c1csc2Br (stereo unspecified) | 17.8 µM (inactive) | 21.4 µM (inactive) | 17.5 µM (inactive) | 25.9 µM (inactive) | 14.1 µM (inactive) | 21.7 µM (inactive) | 15.6 µM (inactive) | 20.9 µM (inactive) | 4.56 µM (inactive) | 19 µM (inactive) | 19.3 µM (inactive) | 3.66 µM (inactive) | 21.5 µM (inactive) | 12.8 µM (inactive) | 15.3 µM (inactive) | 18.2 µM (inactive) | 17.6 µM (inactive) | 16.3 µM (inactive) | – | 18.6 µM (inactive)
S=c1oc(CCCCCCCCc2nn(CNc3ccccc3)c(=S)o2)nn1CNc1ccccc1 | > 100 µM (inactive) | – | > 100 µM (inactive) | > 100 µM (inactive) | – | > 100 µM (inactive) | > 100 µM (inactive) | > 100 µM (inactive) | – | > 100 µM (inactive) | – | > 100 µM (inactive) | > 100 µM (inactive) | > 100 µM (inactive) | > 100 µM (inactive) | > 100 µM (inactive) | 57.5 µM (inactive) | – | > 100 µM (inactive) | > 100 µM (inactive)
Cc1cc2nc3c(C#N)c(-c4ccccc4)cc(Nc4cccc(C(F)(F)F)c4)n3c2cc1C | 9.02 µM (inactive) | – | 4.86 µM (inactive) | 5.28 µM (inactive) | 9.12 µM (inactive) | – | 3.4 µM (inactive) | 4.07 µM (inactive) | – | 3.18 µM (inactive) | 4.04 µM (inactive) | – | – | 2.56 µM (inactive) | 5.25 µM (inactive) | 12.9 µM (inactive) | 0.392 µM (active) | 4.14 µM (inactive) | 3.43 µM (inactive) | 6.1 µM (inactive)
Nn1c(CCCCCCCCc2nnc(COc3ccc(Cl)cc3)n2N)nnc1COc1ccc(Cl)cc1 | > 100 µM (inactive) | – | > 100 µM (inactive) | > 100 µM (inactive) | – | > 100 µM (inactive) | > 100 µM (inactive) | > 100 µM (inactive) | – | > 100 µM (inactive) | – | 49.5 µM (inactive) | > 100 µM (inactive) | 68.2 µM (inactive) | > 100 µM (inactive) | > 100 µM (inactive) | > 100 µM (inactive) | – | > 100 µM (inactive) | > 100 µM (inactive)
CC(=O)[C@@H]1C/C(=C\OCc2ccccc2)O[C@H]1C | > 100 µM (inactive) | – | > 100 µM (inactive) | > 100 µM (inactive) | 61.2 µM (inactive) | > 100 µM (inactive) | > 100 µM (inactive) | > 100 µM (inactive) | – | > 100 µM (inactive) | – | > 100 µM (inactive) | > 100 µM (inactive) | – | > 100 µM (inactive) | > 100 µM (inactive) | 54 µM (inactive) | > 100 µM (inactive) | > 100 µM (inactive) | > 100 µM (inactive)
CCOC(=O)CSc1nc(-c2ccc(Cl)cc2)c(C#N)c(=O)[nH]1 | > 100 µM (inactive) | 22 µM (inactive) | 74.8 µM (inactive) | > 100 µM (inactive) | – | > 100 µM (inactive) | > 100 µM (inactive) | > 100 µM (inactive) | – | > 100 µM (inactive) | – | > 100 µM (inactive) | 42.3 µM (inactive) | > 100 µM (inactive) | > 100 µM (inactive) | > 100 µM (inactive) | 36 µM (inactive) | > 100 µM (inactive) | 50.6 µM (inactive) | > 100 µM (inactive)
